Measured values from US20120076742A1, “Topical drug delivery system with dual carriers” (priority 2010, published 2012).

What was measured:
HL-60 cells = details: cited from earlier work; for amount at which desired cellular responses occurred: priming experiments
[1] = test system: mouse embryonic stem cells and embryoid bodies; details: cited from earlier work
[2] = test system: Staph aureus, MRSA, Klebsiella pneumoniae, E. coli, Proteus vulgaris, Pseudomonas aeruginosa, Enterobacter cloacae, Acinetobacter lwoffi, Acinetobacter …; experiment: In-vitro Petri dish comparison of Lots and control antibiotics (FIGS. 16-36); type: cell-based; details: identical size drops (diameters of ZOA); FIGS. 16-25
MRSA = details: IV, 8 days following admission
Protocol: In this embodiment, the additional ingredient to hasten a third therapeutic tissue healing effect was added. This embodiment used vitamin D in a small but medically efficacious amount.

[3] = Study I: vancomycin peaks and troughs in patient; type: in vivo, human; details: 1.5 g BID, Q12, seven doses
Protocol: Fri 2/5: Detection of a Strep-A strain, confirmed by culture study. Shifted from gentamycin to vancomycin 1.5 g BID, Q12. Patient was kept on this dosing regimen until 2/8 (date of discharge from hospital).
Mon 2/8: Patient received the last of seven doses of vancomycin. Throughout all of this their peaks (within 1 hour of receiving vancomycin) and troughs (before receiving vancomycin) were normal (ranges not noted here). Patient was discharged from the hospital on this date.

Compound	amount at which desired cellular responses occurred (HL-60 cells)	zones of inhibition of control active agents compared with the formulations of the invention [2]	also measured
vitamin D	about 100 nM	–	–
C[S+](C)[O-] [DMSO, dimethyl sulfoxide]	less than 2%	–	subsequent retinoid-induced TGM2 expression (HL-60 cells; priming of the cells by pretreatment): increases; effect on epigenetic profiles [1]: upregulation of mRNA and protein expression
CC[C@H]1OC(=O)[C@H](C)[C@@H](O[C@H]2C[C@@](C)(OC)[C@@H](O)[C@H](C)O2)[C@H](C)[C@@H](O[C@@H]2O[C@H](C)C[C@H](N(C)C)[C@H]2O)[C@](C)(O)C[C@@H](C)C(=O)[C@H](C)[C@@H](O)[C@]1(C)O [Erythromycin]	–	considerably reduced zones of inhibition	–
CN[C@H](CC(C)C)C(=O)N[C@H]1C(=O)N[C@@H](CC(N)=O)C(=O)N[C@H]2C(=O)N[C@H]3C(=O)N[C@H](C(=O)N[C@H](C(=O)O)c4cc(O)cc(O)c4-c4cc3ccc4O)[C@H](O)c3ccc(c(Cl)c3)Oc3cc2cc(c3O[C@@H]2O[C@H](CO)[C@@H](O)[C@H](O)[C@H]2O[C@H]2C[C@](C)(N)[C@H](O)[C@H](C)O2)Oc2ccc(cc2Cl)[C@H]1O [Vancomycin]	–	considerably reduced zones of inhibition	patient response to treatment (MRSA): did not respond; peaks (within 1 hour of receiving) and troughs (before receiving) [3]: normal
CO[C@@]1(NC(=O)Cc2cccs2)C(=O)N2C(C(=O)O)=C(COC(N)=O)CS[C@@H]21 [Cefoxicillin]	–	considerably reduced zones of inhibition	–
